From patent US4537924A, “Quadratic acid amide derivatives, their use as stabilizers, and synthetic resins treated therewith” (Chemische Werke Huels, AG, priority 1982, dated 1985)
In brackets after ≈: the same amount, converted by molar mass. Read-outs that look alike come from different tables or passages of the source.

How the values were obtained:
[1] = Volatility of pure compound by thermogravimetric determination; format: physicochemical; settings: heating-up rate 10° C./min; for Volatility: temperature at weight drop of 2%: weight drop 2%; for Volatility: temperature at weight drop of 50%: weight drop 50%; for Volatility: temperature at weight drop of 80%: weight drop 80%
Description: To test volatility, the quadratic acid bisamides or the synthetic resins treated therewith were subjected to thermogravimetric determination (cf. Tables 1 and 6). The heating-up rate was 10° C./min. A DuPont 950 Thermogravimetric Analyzer was applied.

[2] = Extraction of stabilizers from polyamide 12 with boiling organic solvents; format: physicochemical; settings: 0.25% by weight stabilizer
Text: (a) Polyamide 12 (Number Average Mol. Wt. 30,000: Producer: Chemische Werke Hus AG, D-4370 Marl)
In a pug mill, polyamide 12 granules were combined with quadratic acid bisamides, and the resultant mixture was homogenized in a twin screw extruder. The granulated material obtained in this way was then molded into panels having a thickness of 1 mm, and chips of 30×10 mm were then cut therefrom.
(§1) The solubility values in water and dilute acetic acid (Tables 2 and 3), as well as the extraction values (Tables 4 and 7) confirm the low migrating tendency of the compounds according to the present invention.

[3] = Light exposure test (buckling test) with stabilizers in polyamide 12
[4] = Light exposure test (buckling test) with stabilizers in polypropylene
[5] = Solubility of pure compound in 10% acetic acid; format: physicochemical; settings: 22° C.; for solubility: 10% acetic acid
Text: as §1

[6] = Extraction of stabilizers from polyether esters with boiling organic solvents; format: physicochemical; settings: from polyether ester
Text: (b) Polyether Esters (Number Average Mol. Wt. 25,000)
Into a polyether ester melt based on terephthalic acid, 1,4-butanediol, and polytetrahydrofuran, 0.5% by weight of the respective quadratic acid amide was introduced. After processing into granules, the latter were used to make press-molded panels of a thickness of 1 mm, from which chips were cut of 30×10 mm.
as §1

[7] = Volatility (sublimation) of stabilizers from polyether esters; format: physicochemical; settings: from polyether ester; 195° C. and 0.1 mbar; 0.5% by weight
[8] = Solubility of pure compound in water; format: physicochemical
Text: as §1

[9] = with costabilizer mixture (benzotriazole, hexamethylenediamine phenol, phosphite; 0.25% each), 0.25% by wt. stabilizer (for salts: refers to the bisamide)
[10] = without costabilizer, 0.25% by wt. stabilizer (for salts: refers to the bisamide on which the salt is based)

Structure (SMILES): CC1(C)CC2(CC(C)(C)N1)OC1(CCCCCCCCCCC1)NC2=O [B, 2,2,4,4-tetramethyl-3,20-diaza-7-oxa-21-oxodispiro[5,1,11,2]heneicosane]
- Volatility: temperature at weight drop of 2% [1]: 200 °C
- Volatility: temperature at weight drop of 50% [1]: 280 °C
- Volatility: temperature at weight drop of 80% [1]: 300 °C
- Degree of extraction after 8 hour treatment ([2]; boiling chloroform): 97.2 % of Maximally Extractable Amo
- Degree of extraction after 8 hour treatment ([2]; boiling methanol): 83.1 % of Maximally Extractable Amo

Structure (SMILES): CCN(CC)c1c([O-])c(=[N+](CC)CC)c1=O [C, 1,3-Bis(diethylamino)cyclobutenediylium-2,4-diolate, reference compound]
- Stabilizing effect in polyamide 12, light exposure to break [3, 9]: 511 h
- Stabilizing effect in polyamide 12, light exposure to break [3, 10]: 460 h

Structure (SMILES): CC1(C)CC(OC(=O)CCCCCCCCC(=O)OC2CC(C)(C)NC(C)(C)C2)CC(C)(C)N1 [Comparative Example A, sebacic acid di-4-hydroxy-2,2,6,6-tetramethylpiperidine ester]
- Stabilizing effect in polypropylene, light exposure to break ([4]; 0.2% by wt. stabilizer): 277 h
- solubility [5]: 402 mg/mL (≈ 836000 µM)
- Volatility: temperature at weight drop of 2% [1]: 220 °C
- Volatility: temperature at weight drop of 50% [1]: 285 °C
- Volatility: temperature at weight drop of 80% [1]: 300 °C
- Degree of extraction after 8-hour treatment ([6]; methanol (65° C.)): 60 % of Maximally Extractable Qua
- Degree of extraction after 8-hour treatment ([6]; toluene (110° C.)): 53 % of Maximally Extractable Qua
- Degree of extraction after 8 hour treatment ([2]; boiling chloroform): 69.9 % of Maximally Extractable Amo
- Degree of extraction after 8 hour treatment ([2]; boiling methanol): 68.7 % of Maximally Extractable Amo
- Degree of sublimation after 24-hour treatment [7]: 88 % of Maximally Sublimable Quan

Structure (SMILES): C[C@@H]1CN(c2c([O-])c(=[N+]3C[C@@H](C)O[C@@H](C)C3)c2=O)C[C@H](C)O1 [E, 1,3-Bis(cis-2,6-dimethylmorpholino)cyclobutenediylium-2,4-diolate, reference compound]
- Stabilizing effect in polyamide 12, light exposure to break [3, 9]: 473 h
- Stabilizing effect in polyamide 12, light exposure to break [3, 10]: 432 h

Structure (SMILES): CC1(C)CC(N=c2c(O)c(NC3CC(C)(C)NC(C)(C)C3)c2=O)CC(C)(C)N1 [Example 1, 1,3-Bis[2,2,6,6-tetramethyl-4-piperidylamino]cyclobutenediylium-2,4-diolate]
- solubility ([8]; 22° C.): < 0.02 mg/mL
- solubility ([8]; 100° C.): 0.15 mg/mL (≈ 384 µM)
- Stabilizing effect in polyamide 12, light exposure to break [3, 9]: 1,076 h
- Stabilizing effect in polyamide 12, light exposure to break [3, 10]: 790 h

Structure (SMILES): CC1(C)CC(N=c2c(O)c(NC3CC(C)(C)NC(C)(C)C3)c2=O)CC(C)(C)N1 [Example 1.1, 1,3-bis[2,2,6,6-tetramethyl-4-piperidylamino]cyclobutenediylium-2,4-diolate]
- Solubility of pure compound in 10% acetic acid [5]: 4.6 g/100 g 10% HAc

Structure (SMILES): CC1(C)CC(N=c2c(O)c(NC3CC(C)(C)NC(C)(C)C3)c2=O)CC(C)(C)N1 [Example 1.2, 1,3-bis[2,2,6,6-tetramethyl-4-piperidylamino]cyclobutenediylium-2,4-diolate]
- Solubility of pure compound in 10% acetic acid [5]: 2.4 g/100 g 10% HAc
- Stabilizing effect in polyamide 12, light exposure to break [3, 9]: 1,120 h
- Stabilizing effect in polyamide 12, light exposure to break [3, 10]: 780 h

Structure (SMILES): CC1(C)CC(N=c2c(O)c(NC3CC(C)(C)NC(C)(C)C3)c2=O)CC(C)(C)N1 [Example 1.3, 1,3-bis[2,2,6,6-tetramethyl-4-piperidylamino]cyclobutenediylium-2,4-diolate]
- Solubility of pure compound in 10% acetic acid [5]: 5.0 g/100 g 10% HAc
- Stabilizing effect in polyamide 12, light exposure to break [3, 9]: 976 h
- Stabilizing effect in polyamide 12, light exposure to break [3, 10]: 683 h

Structure (SMILES): CC1(C)CC(N=c2c(O)c(NC3CC(C)(C)NC(C)(C)C3)c2=O)CC(C)(C)N1 [Example 1.4, 1,3-bis[2,2,6,6-tetramethyl-4-piperidylamino]cyclobutenediylium-2,4-diolate]
- Solubility of pure compound in 10% acetic acid [5]: < 0.1 g/100 g 10% HAc

Structure (SMILES): CC1(C)CC(N=c2c(O)c(NC3CC(C)(C)NC(C)(C)C3)c2=O)CC(C)(C)N1 [Example 1.5, 1,3-bis[2,2,6,6-tetramethyl-4-piperidylamino]cyclobutenediylium-2,4-diolate]
- Solubility of pure compound in 10% acetic acid [5]: 0.9 g/100 g 10% HAc
- Stabilizing effect in polyamide 12, light exposure to break [3, 9]: 1,121 h
- Stabilizing effect in polyamide 12, light exposure to break [3, 10]: 720 h

Structure (SMILES): CCCCN(c1c([O-])c(=[N+](CCCC)C2CC(C)(C)NC(C)(C)C2)c1=O)C1CC(C)(C)NC(C)(C)C1 [Example 3, 1,3-Bis[N-n-butyl-N-(2,2,6,6-tetramethyl-4-piperidyl)amino]cyclobutenediylium-2,4-diolate]
- solubility ([8]; 22° C.): < 0.1 mg/mL
- solubility ([8]; 100° C.): 0.8 mg/mL (≈ 1590 µM)

Structure (SMILES): CC(C)CN(c1c([O-])c(=[N+](CC(C)C)C2CC(C)(C)NC(C)(C)C2)c1=O)C1CC(C)(C)NC(C)(C)C1 [Example 4, 1,3-Bis[N-isobutyl-N-(2,2,6,6-tetramethyl-4-piperidyl)amino]cyclobutenediylium-2,4-diolate]
- solubility ([8]; 22° C.): < 0.1 mg/mL
- solubility ([8]; 100° C.): 0.7 mg/mL (≈ 1390 µM)

Structure (SMILES): CCCCCCN(c1c([O-])c(=[N+](CCCCCC)C2CC(C)(C)NC(C)(C)C2)c1=O)C1CC(C)(C)NC(C)(C)C1 [Example 5, 1,3-Bis[N-n-hexyl-(2,2,6,6-tetramethyl-4-piperidyl)amino]cyclobutenediylium-2,4-diolate]
- solubility ([8]; 22° C.): < 0.1 mg/mL
- solubility ([8]; 100° C.): 0.3 mg/mL (≈ 537 µM)

Structure (SMILES): CCCCCCCCN(c1c([O-])c(=[N+](CCCCCCCC)C2CC(C)(C)NC(C)(C)C2)c1=O)C1CC(C)(C)NC(C)(C)C1 [Example 6, 1,3-Bis[N-n-octyl-N-(2,2,6,6-tetramethyl-4-piperidyl)amino]cyclobutenediylium-2,4-diolate]
- solubility ([8]; 22° C.): < 0.1 mg/mL
- solubility ([8]; 100° C.): 0.2 mg/mL (≈ 325 µM)

Structure (SMILES): CC1(C)CC(N(CCO)c2c([O-])c(=[N+](CCO)C3CC(C)(C)NC(C)(C)C3)c2=O)CC(C)(C)N1 [Example 7, 1,3-Bis[N-2-hydroxyethyl-N-(2,2,6,6-tetramethyl-4-piperidyl)amino]cyclobutenediylium-2,4-diolate]
- Stabilizing effect in polypropylene, light exposure to break [4]: 375 h

Structure (SMILES): CC1(C)CC(OCCCN=c2c(O)c(NCCCOC3CC(C)(C)NC(C)(C)C3)c2=O)CC(C)(C)N1 [Example 9, 1,3-Bis[2,2,6,6-tetramethyl-4-piperidyloxypropylamino]cyclobutenediylium-2,4-diolate]
- solubility ([8]; 22° C.): 2.4 mg/mL (≈ 4740 µM)
- solubility ([8]; 100° C.): 9.5 mg/mL (≈ 18700 µM)
- Stabilizing effect in polyamide 12, light exposure to break [3, 9]: 1,135 h
- Stabilizing effect in polyamide 12, light exposure to break [3, 10]: 820 h

Structure (SMILES): CC(CO)N=c1c(O)c(NC(C)CO)c1=O (stereo not drawn) [F, 1,3-Bis[(2-hydroxy-1-methylethyl)amino]cyclobutenediylium-2,4-diolate, reference compound]
- solubility [5]: 222 mg/mL (≈ 973000 µM)

Structure (SMILES): O=c1c(N2CCCCC2)c([O-])c1=[N+]1CCCCC1 [G, 1,3-Bispiperidinocyclobutenediylium-2,4-diolate, reference compound]
- Stabilizing effect in polypropylene, light exposure to break ([4]; 0.2% by wt. stabilizer): 212 h
- Stabilizing effect in polyamide 12, light exposure to break [3, 9]: 619 h
- Stabilizing effect in polyamide 12, light exposure to break [3, 10]: 530 h
